Measured values reported in patent US20120178782A1, “COMPOSITIONS AND METHODS FOR TREATING PROLIFERATIVE DISEASES” (priority 2009, published 2012).
≈ marks a conversion by molar mass, not a printed value.

Key:
MDA-MB-231 = test: MTT cell proliferation assay, breast cancer cell line MDA-MB-231; format: cell-based, human; settings: single inhibitor, 72 hours culture; for minimum inhibitory concentration (cell proliferation): FIG. 1; for minimum proliferation inhibitory concentration: FIG. 1C, 1F
Source text: In the experiments described below, the cells used are human breast and colon cancer cell lines. The breast cancer cell lines were obtained from Lombarda Cancer Center, Georgetown University Medical Center. The breast cancer lines are cell lines called […] and Hs578T. These cells show a high rate of proliferation, absence of estrogen receptors, are capable of forming tumors in naked mice and show a highly aggressive phenotype. Both lines are used very frequently as breast cancer models. The colon cancer cell line is the cell line called SW620 that was originally isolated from the lymphatic nodules of a patient with colon adenocarcinoma.
The cells are cultivated in polystyrene culture bottles (Corning, Corning, N.Y.). Both cell lines are kept in culture in DMEM medium (Dulbeco's Modified Tagle Medium, obtained from Gibco, Invitrogen Corporation, NY. USA) and supplemented with 10% fetal bovine serum (FBS) (obtained from PAA, GmbH Laboratories, Pasching, Austria), and supplemented with 100 U/ml of penicillin and 10 μg/ml of streptomycin (Gibco, Invitrogen Corporation, NY, USA) in incubator 37° C. In humidified atmosphere of […]/5% CO2.
There were carried out curves of dose-cell proliferation inhibition response of the human breast cancer cell line MDA-MB-231, with the intent of objectively knowing the minimum concentrations that produce a proliferation inhibiting effect.
In all the cases, the cell proliferation measurement was carried out using the MTT techniques of incorporation of Bromodeoxyuridine (BrdUr) (5-bromine-2′-deoxyuridine of Elisa Roche Applied Science, Mannheim, Germany) and the violet crystal coloration technique.
The cells were cultivated in microplates (Orange Scientific) of 96 cavities in the amount of 4,000 cells per cavity in 200 ul of DMEM supplemented with FCS supplemented with 100 U/ml of penicillin and 10 ug/ml of streptomycin in incubator at 37° C. with atmosphere of […]/5% CO2. A the end of this period, the cells were cultivated for another 24 hours in culture medium in the absence of serum. At the end of this period, culture medium with scram in the absence (control) or presence of different inhibitors was added, in accordance with the following:
The cells were kept in culture for 72 hours. Then, thiazol blue bromide reagent was added (3-(4,5-dimethylthiazol-[…])-2,5-diphenyltetrazolium bromide). It was incubated for 180 minutes at 37° C. After this time, the culture medium was discarded and the formazan crystals formed were dissolved with 200 ul of dimethylsulfoxide. The microplates were agitated for 15 minutes to dilute the crystals of homogeneous form, and absorbance was determined at 620 nm in a plate reader, “Biotra II, plate reader,” of Amersham Biosciences Inc., Piscataway, N.J., USA.

cell growth = settings: Min Yao et al. 2005; cited from earlier work
[1] = tested on: cells of the microvascular endothelium; settings: per se inhibitory doses of 75 μM; Kakiuchi-Kiyota et al. 2009; cited from earlier work
COX-2 enzyme = biological target: T1, COX-2 enzyme (Homo sapiens, UniProt P35354); settings: plasma concentrations; cited from earlier work
T1 sequence (P35354 18-604): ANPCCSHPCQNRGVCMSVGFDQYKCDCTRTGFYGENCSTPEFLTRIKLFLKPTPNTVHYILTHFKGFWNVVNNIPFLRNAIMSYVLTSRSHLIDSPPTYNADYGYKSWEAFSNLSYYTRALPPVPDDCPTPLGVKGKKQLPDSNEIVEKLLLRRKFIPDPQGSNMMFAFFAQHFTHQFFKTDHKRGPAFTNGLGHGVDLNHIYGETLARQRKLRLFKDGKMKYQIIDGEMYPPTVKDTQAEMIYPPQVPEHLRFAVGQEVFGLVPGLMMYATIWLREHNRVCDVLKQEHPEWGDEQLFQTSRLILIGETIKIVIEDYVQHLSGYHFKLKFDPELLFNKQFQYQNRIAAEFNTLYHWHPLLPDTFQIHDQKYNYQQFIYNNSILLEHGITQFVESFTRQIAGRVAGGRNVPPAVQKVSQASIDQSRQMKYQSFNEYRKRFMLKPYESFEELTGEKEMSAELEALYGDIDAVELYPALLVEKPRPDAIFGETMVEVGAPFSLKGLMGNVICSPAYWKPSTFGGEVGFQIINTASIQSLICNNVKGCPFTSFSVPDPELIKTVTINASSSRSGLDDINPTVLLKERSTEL

SMILES	minimum inhibitory concentration (cell proliferation) (MDA-MB-231) [µM]	other results
CC1=C(C)C(=O)C(CCCCC#CCCCC#CCO)=C(C)C1=O [AA861, Docebenone]	10 (≈ 3.26 µg/mL)	–
Cc1ccc(-c2ncc(Cl)cc2-c2ccc(S(C)(=O)=O)cc2)cn1 [Etoricoxib]	–	minimum proliferation inhibitory concentration (MDA-MB-231): 1000 nM
CC(C)Cc1ccc(C(C)C(=O)O)cc1 (stereo not shown) [Ibuprofen]	500 (≈ 103 µg/mL)	dose for cell growth inhibition (cell growth): at least 500 μM
CN(CCOc1ccc(CC2SC(=O)NC2=O)cc1)c1ccccn1 (stereo not shown) [Rosiglitazone]	75 (≈ 26.8 µg/mL)	–
Cc1c(C)c2c(c(C)c1O)CCC(C)(COc1ccc(CC3SC(=O)NC3=O)cc1)O2 (stereo not shown) [Troglitazone]	75 (≈ 33.1 µg/mL)	toxic effects on endothelial cells [1]: toxic effects were described
COc1cc(C(=O)NS(=O)(=O)c2ccccc2C)ccc1Cc1cn(C)c2ccc(NC(=O)OC3CCCC3)cc12 [Zafirlukast]	–	minimum proliferation inhibitory concentration (MDA-MB-231): > 100 nM
CC(c1cc2ccccc2s1)N(O)C(N)=O (stereo not shown) [Zileuton]	500 (≈ 118 µg/mL)	–
CC(=O)Oc1ccccc1C(=O)O [aspirin, acetylsalicylic acid]	–	plasma concentration inhibiting COX-2 enzyme (COX-2 enzyme): greater than 0.5 mM
